Tests used:
[1] = system: HTB-44 human renal tumor; assay: HTB-44 human renal tumor xenograft test procedure in nude mice; type: in vivo; design: Tumor mass, % of vehicle control, Week 0 / Tumor mass, % of vehicle control, Week 2 / Tumor mass, % of vehicle control, Week 4: concentration or dose not given beside the values; conditions: for effect on tumor growth (in words): CCI-779 25 mg/kg iv weekly or IFN-α 1 million units ip 3 times per week; for Tumor mass, Week 0 / Tumor mass, Week 2 / Tumor mass, Week 4 / Tumor mass, Week 5: CCI-779 25 mg/kg iv once per week; for Tumor mass, Week 0 / Tumor mass, Week 2 / Tumor mass, Week 4: IFN-α 1 × 10^6 units ip 3 times per week; for Tumor mass, Week 0: 4 weeks, tumors about 600 mg at start; for Tumor mass, % of vehicle control, Week 0 / Tumor mass, % of vehicle control, Week 2 / Tumor mass, % of vehicle control, Week 4 / Tumor mass, % of vehicle control, Week 5: same dosing as the tumor mass values; for Tumor mass, Week 5: IFN-α 1 × 10^6 units ip 3 times per week for 4 weeks
Procedure: CCI-779 was evaluated in combination with Interferon-alpha (IFN-α) in the HTB44 human mouse xenograft standard pharmacological test procedure of renal cancer. The human renal cell line HTB-44 (also referred to in the scientific literature as A498) is derived from a patient with a clear cell carcinoma that had lost expression of the von Hippel-Lindau (VHL) gene. These types of tumors are representative of the large majority (≈80%) of sporadic renal cell carcinomas.
CCI-779 was evaluated as a single agent on a weekly schedule against large (>500mg) HTB-44 tumors in nude mouse xenografts. Dosing was from 10 mg/kg to 75 mg/kg intravenously once a week beginning on day 0 when tumors had reached a size of about 500 mm^3.
Similarly, a dose response of IFN-α as a single agent was performed. […] Therefore, a dose of 1 million units 3 times per week intraperitoneally was chosen to combine with CCI-779 at 25 mg/kg iv once per week. Groups of 10 mice were treated with CCI-779 alone, IFN-α alone, or the combination (Table 1). IFN-α was given on days 1, 3, and 5 and CCI-779 on day 6 of each week for 4 weeks. Dosing began after tumors had reached a size of about 600 mg.

[2] = system: advanced RCC; assay: Phase 1 open-label ascending-dose study of CCI-779 plus IFN in RCC patients; type: in vivo
Procedure: Thus, the combination of CCI-779 and IFN was evaluated in RCC patients (pts) in a phase 1 study.
In an open-label, ascending-dose, single-arm study, CCI-779 was given IV once weekly, with IFN given subcutaneously 3 times weekly. IFN was given alone the 1st treatment week. The starting dose levels were 6 million units (MU) IFN and 5 mg CCI-779. CCI-779 dose-escalation steps were 10 mg, 15 mg, and 25 mg. Once the maximum dose of CCI-779 is determined, the dose level of IFN can be escalated to 9 MU (at a reduced CCI-779 dose, if necessary). Dose escalation was based on a safety evaluation of pts (≧6/cohort) after 4 weeks of treatment.
Up to 40 patients are being evaluated at the maximum tolerated dose (MTD). In summary, 71 pts with advanced RCC were enrolled; 27 continue treatment. Patients (73% men, 27% women) had ECOG performance status of 0: 53% and 1: 46% and median age of 59 yrs (range, 35-80); 45% had prior IL-2 treatment. In dose escalation, patients received 6 MU IFNα with CCI-779 at 5 mg (7 pts), 10 mg (6), 15 mg (6), 20 mg (6), or 25 mg (7); 6 pts also received 9 MU IFNα with 15 mg CCI-779. […] To date, 33 additional patients have been accrued at the MTD. […] CCI-779-related adverse events with overall frequency ≧5% (n=53) were leukopenia (25%), hyperlipidemia (15%), asthenia (13%), AST increase (8%), mucositis (6%), anemia (6%), thrombocytopenia (6%), and rash (6%). Four patients were removed from study due to CCI-779-related toxicity. Approximately 50% of MTD patients have required CCI-779 dose reductions in subsequent cycles. Median time on treatment for all cohorts was 7 mo, 36 have continued for >6 mo of whom 9 have continued for >12 mo. Preliminary tumor responses (RECIST) in 55 pts were confirmed partial response, 7 pts (13%); stable disease, 39 (71%, 19 pts ≧6 mo); and progressive disease, 9 (16%).

[3] = Stability of CCI-779 in parenteral cosolvent formulation; type: physicochemical; conditions: citric acid at a concentration of less than 0.01% w/v
Description: In this embodiment, the stability of CCI-779 in parenterally acceptable alcoholic cosolvents is enhanced by addition of an antioxidant to the formulation. Acceptable antioxidants include, but are not limited to, citric acid, d,l-α-tocopherol, BHA, BHT, monothioglycerol, ascorbic acid, propyl gallate, and mixtures thereof. Generally, the parenteral formulations useful in this embodiment of the invention will contain an antioxidant component(s) in a concentration ranging from 0.001% to 1% w/v, or 0.01% to 0.5% w/v, of the cosolvent concentrate, although lower or higher concentrations may be desired. Of the antioxidants, d,l-α-tocopherol is particularly desirable and is used at a concentration of 0.01 to 0.1% w/v with a preferred concentration of 0.075% w/v of the cosolvent concentrate.
Examples of such chelating agents include, e.g., citric acid, acetic acid, and ascorbic acid (which may function as both a classic antioxidant and a chelating agent in the present formulations). Other chelating agents include such materials as are capable of binding metal ions in solution, such as ethylene diamine tetra acetic acid (EDTA), its salts, or amino acids such as glycine are capable of enhancing the stability of CCI-779. […] Optimal concentrations for the selected antioxidant(s) can be readily determined by one of skill in the art, based upon the information provided herein.

[4] = system: tumor cells; conditions: cited from earlier work
[5] = system: human tumor xenografts; conditions: nude mice, cited from earlier work
[6] = system: human glioblastoma cell line; conditions: in vitro; cited from earlier work

With Interferon α [reference compound] the “single agent dose response, effectiveness” value ([1]; 1 million units or 0.5 million units 3 times per week, data not shown) was “similarly effective”, the “effect on tumor growth (in words)” value ([1]; single agent) was “retardation of tumor growth without tumor regression” and the “Tumor mass, Week 0” value [1] was 586 mg. The “Tumor mass, % of vehicle control, Week 0” value [1] was 100%, the “Tumor mass, Week 2” value [1] was 682 mg and the “Tumor mass, % of vehicle control, Week 2” value [1] was 66%. The “Tumor mass, Week 4” value [1] was 957 mg, the “Tumor mass, % of vehicle control, Week 4” value [1] was 48% and the “Tumor mass, Week 5” value [1] was 1280 mg. For the same molecule, the “Tumor mass, % of vehicle control, Week 5” value [1] was 57%.

In the case of CO[C@H]1C[C@@H]2CC[C@@H](C)[C@@](O)(O2)C(=O)C(=O)N2CCCC[C@H]2C(=O)O[C@H]([C@H](C)C[C@@H]2CC[C@@H](OC(=O)C(C)(CO)CO)[C@H](OC)C2)CC(=O)[C@H](C)/C=C(\C)[C@@H](O)[C@@H](OC)C(=O)[C@H](C)C[C@H](C)/C=C/C=C/C=C/1C [CCI-779, Rapamycin 42-ester with 3-hydroxy-2-(hydroxymethyl)-2-methylpropionic acid], the “inhibition of tumor growth” value ([1]; single agent, 10 mg/kg to 75 mg/kg iv once a week, tumors about 500 mm^3 on day 0, all doses) is reported as 30-35%, the “tumor regression at three fold higher dose” value ([1]; single agent, 75 mg/kg) is reported as “did not induce tumor regression” and the “effect on tumor growth (in words)” value ([1]; single agent) is reported as “retardation of tumor growth without tumor regression”. For the same molecule, the “Tumor mass, Week 0” value [1] was 589 mg, the “Tumor mass, % of vehicle control, Week 0” value [1] was 100% and the “Tumor mass, Week 2” value [1] was 825 mg. For the same molecule, the “Tumor mass, % of vehicle control, Week 2” value [1] was 80%, the “Tumor mass, Week 4” value [1] was 1382 mg and the “Tumor mass, % of vehicle control, Week 4” value [1] was 69%. The “Tumor mass, Week 5” value [1] was 1539 mg, the “Tumor mass, % of vehicle control, Week 5” value [1] was 68% and the “MTD patients requiring CCI-779 dose reductions in subsequent cycles” value ([2]; at MTD 15 mg CCI-779, 6 MU IFNα) was “Approximately 50%”. For the same molecule, the “Grade 34 CCI-779-related adverse events, frequency: AST increase” value ([2]; both, human, in vivo) was 8%, the “Grade 34 CCI-779-related adverse events, frequency: anemia” value ([2]; both, human, in vivo) was 6% and the “Grade 34 CCI-779-related adverse events, frequency: asthenia” value ([2]; both, human, in vivo) was 13%. For the same molecule, the “Grade 34 CCI-779-related adverse events, frequency: hyperlipidemia” value ([2]; both, human, in vivo) was 15%, the “Grade 34 CCI-779-related adverse events, frequency: leukopenia” value ([2]; both, human, in vivo) was 25% and the “Grade 34 CCI-779-related adverse events, frequency: mucositis” value ([2]; both, human, in vivo) was 6%. For the same molecule, the “Grade 34 CCI-779-related adverse events, frequency: rash” value ([2]; both, human, in vivo) was 6%, the “Grade 34 CCI-779-related adverse events, frequency: thrombocytopenia” value ([2]; both, human, in vivo) was 6% and the “CCI-779-related adverse events, frequency: anemia” value ([2]; human, in vivo) was 33%. For the same molecule, the “CCI-779-related adverse events, frequency: anorexia” value ([2]; human, in vivo) was 33%, the “CCI-779-related adverse events, frequency: asthenia” value ([2]; human, in vivo) was 39% and the “CCI-779-related adverse events, frequency: chills” value ([2]; human, in vivo) was 22%. For the same molecule, the “CCI-779-related adverse events, frequency: diarrhea” value ([2]; human, in vivo) was 28%, the “CCI-779-related adverse events, frequency: fever” value ([2]; human, in vivo) was 22% and the “CCI-779-related adverse events, frequency: hyperlipidemia” value ([2]; human, in vivo) was 28%. For the same molecule, the “CCI-779-related adverse events, frequency: leukopenia” value ([2]; human, in vivo) was 22%, the “CCI-779-related adverse events, frequency: nausea” value ([2]; human, in vivo) was 39% and the “CCI-779-related adverse events, frequency: taste perversion” value ([2]; human, in vivo) was 22%. For the same molecule, the “Gr 3-4 CCI-779-related AEs: hyperglycemia, number of pts” value ([2]; human, in vivo) was 2 pts, the “Gr 3-4 CCI-779-related AEs: hyperlipidemia, number of pts” value ([2]; human, in vivo) was 4 pts and the “Gr 3-4 CCI-779-related AEs: leukopenia, number of pts” value ([2]; human, in vivo) was 3 pts. The “patients removed from study due to CCI-779-related toxicity” value ([2]; human, in vivo) was “Four”, the “CCI-779-related adverse events, frequency: mucositis” value ([2]; preliminary results, n=18, CCI-779 5-25 mg IV once weekly with IFN 6 MU sc 3 times weekly) was 44% and the “CCI-779-related adverse events, frequency: allergic reaction” value ([2]; preliminary results, n=18, with IFN) was 22%. The “stability of CCI-779 with citric acid” value [3] was “enhanced the stability”, the “growth of tumor cells in vitro” value ([4]; CNS cancer, leukemia (T-cell), breast, prostate and melanoma lines most sensitive) was “inhibit the growth of a number of histologically diverse tumor cells” and the cell cycle effect ([4]; in vitro) was “arrested cells in the G1 phase of the cell cycle”. For the same molecule, the “activity in orthotopic glioma model” value [5] was “active”, the “activity against human tumor xenografts” value ([5]; gliomas particularly sensitive) was “activity against human tumor xenografts of diverse histological types” and the “growth factor (platelet-derived)-induced stimulation of human glioblastoma cell line” value [6] was “markedly suppressed”.

— patent US20040258662A1, “Antineoplastic agents” (Wyeth, priority 2003, published 2004)
